According to US20240057595A1, “INSECT REPELLENT COMPOSITIONS” (Manus Bio Inc., priority 2020, published 2024):

Test system: Aedes aegypti UGAL mosquito strain (adult female)
Assay: Mortality assay on treated filter paper
Assay type: in vivo
Details: 0.5% solution; within the first 20 minutes; FIG. 4
Experimental: A mortality assay was employed to evaluate mosquito mortality in response to exposure to eleven different treatments including water, a series of NKT dilutions, and 0.5% permethrin. The Aedes aegypti UGAL mosquito strain (adult female) was used in this example.
The experiments were conducted in a well-lit, temperature- and humidity-controlled room. The room was 22-24° C. with humidity at 40-45%. To conduct these experiments, each treatment had four replicates under the same conditions. A filter paper, 10 cm in diameter, was treated with 340 μl of an experimental or control solution using a standardized spray bottle (113.3 μl/spray) that was held approximately 5 cm away from the paper. The treated filter paper was placed into an open petri dish with a diameter of 10 cm. […] Female mosquitoes were then anesthetized on ice for five minutes. After 60 minutes, 10 ice-anesthetized adult female mosquitoes were transferred onto the treated paper using soft featherweight forceps. The petri dish lid was placed on top, and the mosquitoes were given two minutes to revive before the timer was started. Mosquitoes were then monitored every five minutes. Mosquitoes on their back were considered knocked down and marked as deceased in these experiments. […] Log-rank (Mantel-Cox) test was performed for comparison of survival curves.

CC1(C)C(C=C(Cl)Cl)C1C(=O)OCc1cccc(Oc2ccccc2)c1 (stereo not shown) [permethrin]
knockdown effect: strong immediate knockdown effect
